Tests used:
[1] = system: mice (C57BL/6, female); assay: Assessment of anagen phase induction and promotion in shaved mice; type: in vivo
Method: Experimentation for effects of inducing and promoting an anagen phase (that is, hair growth period) was performed with 7 weeks-old mice (C57BL/6, female) widely used in assessment of activity for anagen phase induction. First, using an electric shaver, hair on the dorsal part of a mouse was removed. Each mouse was weighed and all mice were divided into groups, each group having five (5) mice, in order to uniformly disperse body weights of the mice. Hair cut regions were coated with an excipient, control and test medicine, respectively. In this regard, the excipient was 95% ethanol, the control was 2% minoxidil, and the test medicine used herein was the compound in Example 8 diluted with 95% ethanol to have a final concentration of 0.5%. Using a brush, each of the above test samples was sufficiently applied to the dorsal part of each mouse once per day.

[2] = system: 5α-reductase; assay: 5α-reductase inhibitory efficacy: DHT produced in testosterone-stimulated dermal papilla cells (DHT ELISA); type: cell-based; details: 50 nM testosterone, 24 hours, produced DHT relative to control
Method: After seeding 1 ml of dermal papilla cells (DPCs) by 5×10^5/ml into each well of a 24-well plate, then incubating the same for 24 hours, each of the reaction products prepared according to procedures described in Examples 1 to 72 was added in amounts of 50 μg/ml, 10 μg/ml and 0 μg/ml, respectively, to individual wells. After 1 hour, the wells were subjected to stimulation using 50 nM testosterone (DMSO dissolved). The supernatant was discarded 24 hours after culturing, to thus obtain DPc pellets. A content of dihydrotestosterone (DHT) (DB52021, Hamburg, Germany) was determined by means of enzyme-linked immune-sorbent assay. DPCs cell pellets were seeded in an amount of 100 μL into each of Dihydrotestosterone (DHT) ELISA microtiter strips coated with rabbit anti-DHT antibody, 25 μL of DHT antiserum was seeded in every well, and subjected to a reaction at 2 to 8° C. for 15 to 20 hours, followed by washing the same three times. Thereafter, 100 μL of DHT-HRP enzyme conjugate was seeded in every well and reacted on a shaker at room temperature for 30 minutes, followed by washing the same three times. Furthermore, 100 μL of substrate was seeded in every well and reacted on a shaker at room temperature for 20 to 30 minutes. Then, the product was treated using 100 μL stop solution, and subjected to measurement of absorbance at 450 nm to express an amount of produced DHT by the absorbance (three times repeated). An amount of produced DHT relative to a control was calculated in terms of an inhibitory rate (%), and results thereof are shown in Table 3 below.

[3] = 20 days after experimentation, topical once per day on shaved dorsal part, five mice per group, Minoxidil 2%, Example 8 0.5% in 95% ethanol

| Compound | 5α-reductase inhibitory rate (%) ([2]; sample concentration 10 μg/ml) | 5α-reductase inhibitory rate (%) ([2]; sample concentration 50 μg/ml) | further results |
| --- | --- | --- | --- |
| Nc1cc(N2CCCCC2)nc(N)[n+]1[O-] [Minoxidil, minoxidil, reference compound] |  |  | Number of mouse graded + (improved) [1, 3]: 1; Number of mouse graded ++ (remarkably improved) [1, 3]: 2; Number of mouse graded ± (slightly improved) [1, 3]: 1; Number of mouse graded − (not changed) [1, 3]: 1 |
| O-octadecyl-α-amyrin [Compound in Example 56] | 38 | 49 |  |
| CC(C)[C@H](C)CC[C@@H](C)[C@H]1CC[C@H]2[C@@H]3CC=C4C[C@@H](O)CC[C@]4(C)[C@H]3CC[C@]12C [Compound in Example 44, Campesterol] | 11 | 21 |  |
| CCCCCOC1CCC2(C)C(CCC3(C)C2CC=C2C4CC(C)(C)CCC4(C)CCC23C)C1(C)C (stereo not drawn) [Compound in Example 51, O-pentyl-β-amyrin] | 22 | 38 |  |
| O-octadecyl-β-amyrin [Compound in Example 54] | 35 | 48 |  |
| O-dodecyl-β-amyrin [Compound in Example 53] | 31 | 41 |  |
| dihydroandrosterone stearate [Compound in Example 37] | 24 | 38 |  |
| oleanolic acid stearate [Compound in Example 25] | 35 | 41 |  |
| desmosterol stearate [Compound in Example 39] | 26 | 41 |  |
| CC(=O)OC1CCC2(C)C(CCC3(C)C2CC=C2C4CC(C)(C)CCC4(C)CCC23C)C1(C)C(=O)O (stereo not drawn) [Compound in Example 27, α-boswellic acid acetate] | 21 | 29 |  |
| CC1(C)CC[C@]2(C(=O)O)CC[C@]3(C)C(=CC[C@@H]4[C@@]5(C)CC[C@H](O)C(C)(C)[C@@H]5CC[C@]43C)[C@@H]2C1 [Compound in Example 22, oleanolic acid] | 7 | 16 |  |
| C[C@H]1[C@H](C)CC[C@]2(C)CC[C@]3(C)C(=CC[C@@H]4[C@@]5(C)CC[C@@H](O)[C@](C)(C(=O)O)[C@@H]5CC[C@]43C)[C@H]12 [Compound in Example 29, β-boswellic acid] | 11 | 23 |  |
| CC1(C)CC[C@]2(C)CC[C@]3(C)C(=CC[C@@H]4[C@@]5(C)CC[C@@H](O)[C@](C)(C(=O)O)[C@@H]5CC[C@]43C)[C@@H]2C1 [Compound in Example 26, α-boswellic acid] | 10 | 19 |  |
| CCCCC(CC)C(=O)OC1CCC2(C)C(CCC3(C)C2CC=C2C4CC(C)(C)CCC4(C)CCC23C)C1(C)C (stereo not drawn) [Compound in Example 4, β-amyrin 2-ethylhexanoate] | 36 | 54 |  |
| C[C@H]1[C@H](C)CC[C@]2(C)CC[C@]3(C)C(=CC[C@@H]4[C@@]5(C)CC[C@H](O)C(C)(C)[C@@H]5CC[C@]43C)[C@H]12 [Compound in Example 10, α-amyrin] | 13 | 29 |  |
| CC(C)CCC[C@@H](C)[C@H]1CC[C@H]2[C@@H]3CC=C4C[C@@H](O)CC[C@]4(C)[C@H]3CC[C@]12C [Compound in Example 40, cholesterol] | 15 | 17 |  |
| O-octadecyl-oleanolic acid [Compound in Example 62] | 29 | 51 |  |
| CCCCCCCCO[C@H]1CC[C@@]2(C)C(=CC[C@H]3[C@@H]4CC[C@H]([C@H](C)CCCC(C)C)[C@@]4(C)CC[C@@H]32)C1 [Compound in Example 68, O-octyl-cholesterol] | 35 | 45 |  |

| Compound | 5α-reductase inhibitory rate (%) ([2]; sample concentration 10 μg/ml) | 5α-reductase inhibitory rate (%) ([2]; sample concentration 50 μg/ml) | further results |
| --- | --- | --- | --- |
| CC(C)=CC(=O)OC1CCC2(C)C(CCC3(C)C2CC=C2C4CC(C)(C)CCC4(C)CCC23C)C1(C)C (stereo not drawn) [Compound in Example 3, β-amyrin 3-methyl-2-butenate] | 28 | 41 |  |
| CCCCCCCCOC1CCC2(C)C(=CCC3C2CCC2(C)C(C(C)CCC(C)C(C)C)CCC32)C1 (stereo not shown) [Compound in Example 70, O-octyl-campesterol] | 28 | 51 |  |
| CCCCCCCC(=O)OC1CCC2(C)C(CCC3(C)C2CC=C2C4CC(C)(C)CCC4(C)CCC23C)C1(C)C (stereo not drawn) [Compound in Example 5, β-amyrin octanoate] | 41 | 57 |  |
| CC(=O)O[C@H]1CC[C@]2(C)[C@H]3CC=C4[C@@H]5[C@@H](C)[C@H](C)CC[C@]5(C)CC[C@@]4(C)[C@]3(C)CC[C@H]2C1(C)C [Compound in Example 11, α-amyrin acetate] | 31 | 42 |  |
| CCCCCCCCOC1CCC2(C)C(=CCC3C2CCC2(C)C(C(C)C=CC(C)C(C)C)CCC32)C1 (stereo not shown) [Compound in Example 71, O-octyl-brassicasterol] | 29 | 38 |  |
| β-amyrin laurate [Compound in Example 6] | 43 | 59 |  |
| CCCCCCCC(=O)OC1CCC2(C)C(CCC3(C)C2CC=C2C4CC(C)(C)CCC4(C(=O)O)CCC23C)C1(C)C (stereo not shown) [Compound in Example 24, oleanolic acid octanoate] | 21 | 39 |  |
| CCCCCCCCOC1CCC2(C)C(=CCC3C2CCC2(C)C(C(C)C=CC(CC)C(C)C)CCC32)C1 (stereo not shown) [Compound in Example 69, O-octyl-stigmasterol] | 19 | 33 |  |
| CCCCCCCCOC1CCC2(C)C(CCC3(C)C2CC=C2C4CC(C)(C)CCC4(C)CCC23C)C1(C)C(=O)O (stereo not drawn) [Compound in Example 63, O-octyl-α-boswellic acid] | 21 | 34 |  |
| CCCCCCCCCCCCCCCCCC(=O)O[C@H]1CC[C@@]2(C)C(=CC[C@H]3[C@@H]4CC[C@H]([C@H](C)CC[C@@H](C)C(C)C)[C@@]4(C)CC[C@@H]32)C1 [Compound in Example 45, Campesterol stearate] | 26 | 43 |  |
| CC(C)=CCC[C@@H](C)[C@H]1CC[C@H]2[C@@H]3CC=C4C[C@@H](O)CC[C@]4(C)[C@H]3CC[C@]12C [Compound in Example 38, desmosterol] | 12 | 31 |  |
| CCCCCCCCOC1CCC2(C)C(CCC3(C)C2CC=C2C4CC(C)(C)CCC4(C(=O)O)CCC23C)C1(C)C (stereo not shown) [Compound in Example 61, O-octyl-oleanolic acid] | 22 | 37 |  |
| CCCCCCCCOC1CCC2(C)C(CCC3(C)C2CC=C2C4C(C)C(C)CCC4(C)CCC23C)C1(C)C (stereo not drawn) [Compound in Example 55, O-octyl-α-amyrin] | 24 | 38 |  |
| O-octyl-β-boswellic acid [Compound in Example 64] | 35 | 51 |  |
| oleanolic acid acetate [Compound in Example 23] | 11 | 23 |  |
| C=C(C)[C@@H]1CC[C@]2(C(=O)O)CC[C@]3(C)[C@H](CC[C@@H]4[C@@]5(C)CC[C@H](O)C(C)(C)[C@@H]5CC[C@]43C)[C@@H]12 [Compound in Example 32, betulinic acid] | 9 | 17 |  |
| β-amyrin stearate [Compound in Example 8] | 48 | 63 | hair growth in the hair cut region (in words) ([1]; 0.5% in 95% ethanol, topical once per day, Table 4 and FIG. 1): rapid hair growth; Number of mouse graded + (improved) [1, 3]: 1; Number of mouse graded ++ (remarkably improved) [1, 3]: 3; Number of mouse graded ± (slightly improved) [1, 3]: 1 |
